Holding throughout (test): HDAC activity with fluorogenic lysyl substrates
Common to all, as to format: biochemical
Settings in all cases: 50 μM substrate

Test [1] deals with T1, HDAC11 (Homo sapiens, UniProt Q96DB2).
T1 construct: purchased ENZO Life Sciences BML-SE560
T1 sequence (Q96DB2 1-347): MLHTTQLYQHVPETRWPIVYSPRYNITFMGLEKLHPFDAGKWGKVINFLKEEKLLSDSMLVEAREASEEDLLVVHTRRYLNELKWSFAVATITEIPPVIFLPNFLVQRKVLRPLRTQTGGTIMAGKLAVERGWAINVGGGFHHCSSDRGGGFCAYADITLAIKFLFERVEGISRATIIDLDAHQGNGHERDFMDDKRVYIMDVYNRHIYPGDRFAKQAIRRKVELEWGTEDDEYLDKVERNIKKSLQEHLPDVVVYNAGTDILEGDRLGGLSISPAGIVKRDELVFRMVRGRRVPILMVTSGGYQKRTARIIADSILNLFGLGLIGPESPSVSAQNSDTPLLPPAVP
Summed up: (§1)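 37 °C; recombinant human enzymes or HeLa extract; acetyl-, succinyl- or trifluoroacetyl-lysine AMC substrates (e.g. Ac-Lys(Succ.)-AMC) in SIRT1 fluorometric kit format; trypsin development, AMC fluorescence read-out.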

Test [2] has as its target T2, HDAC5 (Homo sapiens, UniProt Q9UQL6).
T2 construct: made in house; host or cells: E. coli
Summed up:
as §1

In test [3] the target is T3, HDAC8 (Homo sapiens, UniProt Q9BY41).
T3 construct: purchased ENZO Life Sciences BML-SE145
T3 sequence (Q9BY41 1-377): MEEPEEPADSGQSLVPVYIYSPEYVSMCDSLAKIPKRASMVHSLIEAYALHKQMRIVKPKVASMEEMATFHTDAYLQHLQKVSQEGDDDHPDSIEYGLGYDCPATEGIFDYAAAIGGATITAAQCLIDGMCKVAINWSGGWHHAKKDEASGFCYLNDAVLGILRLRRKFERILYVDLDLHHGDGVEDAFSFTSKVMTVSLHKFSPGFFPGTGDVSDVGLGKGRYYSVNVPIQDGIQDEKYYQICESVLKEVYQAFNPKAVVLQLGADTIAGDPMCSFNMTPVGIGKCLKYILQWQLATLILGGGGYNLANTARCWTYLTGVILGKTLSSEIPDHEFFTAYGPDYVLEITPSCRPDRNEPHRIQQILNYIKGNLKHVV
The method, boiled down: as §1

Test [4] has as its target T4, HDAC9 (Homo sapiens, UniProt Q9UKV0).
T4 construct: made in house; host or cells: E. coli
The method, boiled down:
as §1

*: point of attachment. AMC = Cc1cc(=O)oc2cc(N*)ccc12

Consider five compounds from patent US10920265B2, “Compounds and methods for detection of enzymes that remove methyl succinyl groups from epsilon-amino lysine moieties” (Enzo Life Sciences, Inc., priority 2011, dated 2021).

T2 sequence (Q9UQL6 656-1122): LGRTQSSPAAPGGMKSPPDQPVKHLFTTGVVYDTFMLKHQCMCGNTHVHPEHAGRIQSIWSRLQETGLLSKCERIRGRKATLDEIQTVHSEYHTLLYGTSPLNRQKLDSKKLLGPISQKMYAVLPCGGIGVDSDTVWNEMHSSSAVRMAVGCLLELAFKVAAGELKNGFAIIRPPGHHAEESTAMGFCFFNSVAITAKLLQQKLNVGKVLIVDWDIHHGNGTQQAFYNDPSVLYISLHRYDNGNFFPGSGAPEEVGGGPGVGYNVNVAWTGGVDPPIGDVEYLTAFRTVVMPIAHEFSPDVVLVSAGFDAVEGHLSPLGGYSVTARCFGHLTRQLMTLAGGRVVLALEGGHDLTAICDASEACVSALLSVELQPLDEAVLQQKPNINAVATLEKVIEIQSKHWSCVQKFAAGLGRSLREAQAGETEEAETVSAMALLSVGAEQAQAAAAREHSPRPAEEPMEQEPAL
T4 sequence (Q9UKV0 644-1066 isoform Q9UKV0-5): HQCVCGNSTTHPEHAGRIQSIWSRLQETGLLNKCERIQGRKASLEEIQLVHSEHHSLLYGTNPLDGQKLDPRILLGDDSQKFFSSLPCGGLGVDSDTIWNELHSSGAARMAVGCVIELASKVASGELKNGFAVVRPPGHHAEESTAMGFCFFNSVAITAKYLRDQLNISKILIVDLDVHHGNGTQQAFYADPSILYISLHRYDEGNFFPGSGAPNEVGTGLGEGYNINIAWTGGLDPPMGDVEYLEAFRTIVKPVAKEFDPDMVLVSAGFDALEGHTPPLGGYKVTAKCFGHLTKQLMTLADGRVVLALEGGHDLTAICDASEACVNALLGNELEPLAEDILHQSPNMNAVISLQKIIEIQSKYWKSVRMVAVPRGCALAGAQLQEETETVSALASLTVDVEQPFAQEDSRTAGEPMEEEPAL

`CC(=O)N[C@@H](CCCCNC(=O)CCC(=O)O)C(=O)Nc1ccc2c(C)cc(=O)oc2c1` [Compound 1, N—(N^α-acetyl-L-Lysine(N^ε-succinyl))-AMC]: the “Activity (pmol/min/μg)” value in test [1], in test [2], in test [3] and in test [4] was “Undetectable” each time.

As to `COC(=O)CCC(=O)NCCCC[C@H](NC(C)=O)C(=O)Nc1ccc2c(C)cc(=O)oc2c1` [Compound 5, N—(N^α-acetyl-L-Lysine(N^ε-methyl succinyl))-AMC], the “Activity (pmol/min/μg)” value in test [2] is “Undetectable”. Also, the results for the “Activity” value in test [3] and in test [4] were 0.003 pmol/min/µg and 0.135 pmol/min/µg, respectively.

As to “Ac-Arg-His-Lys-Lys(ε-acetyl)-AMC (Ac-RHKK(Ac)-{AMC}; SMILES CC(=O)NCCCC[C@H](NC(=O)[C@H](CCCCN)NC(=O)[C@H](Cc1c[nH]cn1)NC(=O)[C@H](CCCNC(=N)N)NC(C)=O)C(=O)Nc1ccc2c(C)cc(=O)oc2c1) [Ac-RHKK(Ac)-AMC, p53 peptide fluorogenic deacetylase substrate, Cat. # BML-KI177, reference compound]”, the “Activity (pmol/min/μg)” value in test [1] is listed as “Ac-RHKK(Ac)-AMC/6.09 pmol/min/μg”.

As to `CC(=O)NCCCCC(NC(C)=O)C(=O)Nc1ccc2c(C)cc(=O)oc2c1` (stereo not drawn) [Ac-Lys(Ac.)-AMC, Ac-Lys(ε-acetyl)-AMC, reference compound], the “Activity” value in test [1] was 4.15 pmol/min/µg; in test [3], 0.091 pmol/min/µg; in test [4], 0.027 pmol/min/µg. In addition, the “Activity (pmol/min/μg)” value in test [2] is listed as “Undetectable”.

For `CCCCCCCCCCCCCC(=O)NCCCC[C@H](NC(C)=O)C(=O)Nc1ccc2c(C)cc(=O)oc2c1` [Compound 4, N—(N^α-acetyl-L-Lysine(N^ε-myristoyl))-AMC], the “Activity (pmol/min/μg)” value in test [2], in test [3] and in test [4] was “Undetectable” in each case.
